Measurements taken from patent US7256172B1, “Method of treatment and agents useful for same” (The University of Melbourne, priority 1998, dated 2007).
Read-outs that look alike come from different tables or passages of the source. No end group written: not given here.

Tests used:
[1] = tested on: mouse bronchial rings; settings: for relaxation in presence of NO blockers: L—NOARG (100 μM) and HbO (20 μM); for response of epithelium-intact bronchi: contracted to approximately 40% Fmax with carbachol; for relaxation after removal of the epithelium: epithelium removed with 0.1% v/v Triton X-100; for response in presence of cyclooxygenase inhibitors: indomethacin (3 μM) or aspirin (100 μM); for maximum relaxation (Rmax) / sensitivity (pEC50): main bronchi with epithelium; for maximum relaxation (Rmax): % of initial force to carbachol; for sensitivity (pEC50): contracted with carbachol; for response after desensitisation to thrombin: post-thrombin; for response after desensitisation to trypsin: post-trypsin
Excerpt: (§1) The right and left main bronchi and their first order branches of specific pathogenfree (SPF) Balb/c mice (15–20 g; either sex), Hartley tricolour guinea-pigs (300–400 g; male) and Sprague-Dawley rats (200–350 g; either sex), all killed by either cervical dislocation or overdosed (i.p.) with sodium pentobarbitone, were cleared of surrounding connective tissue, nerves and blood vessels under a dissecting microscope and placed in cold, carbogenated (95% v/v O2,5% v/v CO2) Krebs solution (Kemp and Cocks, 1997). Human airway preparations (0.5–1 mm in external diameter) were dissected from lungs of cancer patients undergoing thoracotomy at The Royal Melbourne Hospital, Melbourne, Australia. The epithelium was removed from some bronchi either by mechanical abrasion of the luminal surface (guinea-pig) or by brief, gentle intraliminal flushing of the airways with Krebs containing 0.1% v/v Triton-X100 (mouse and rat). In each case, removal of the epithelium was verified histologically in 8 μm formalin-fixed, paraffin sections stained with haemotoxylin and eosin. Ring segments (approximately 2 mm long) of bronchi and bronchioles were mounted in Krebs (37° C.) on stainless steel wires (40 μm) in dual channel (5 ml) Mulvany-Halpern myographs (JP Trading, Aarhus, Denmark) to record changes in isometric force (Kemp and Cocks, 1997). After equilibration at a passive force between 0.2 g and 0.3 g, tissues were contracted to their maximum levels of active force (Fm.),) with acetylcholine (30 μM), thoroughly washed with Krebs and allowed to return to baseline. Various drugs or their vehicles were then added and 30 min later all tissues were contracted to approximately 40% Fmax with titrated concentrations of carbachol (10–500 nM). The L-type voltage-operated Ca^2+ channel inhibitor, nifedipine (0.3 μM) was added to all mouse and rat tissues after obtaining Fmax to control characteristic phasic contractile activity with carbachol.
If no response occurred the tissues were then exposed to cumulative concentrations of either SLIGRL—NH2 (SEQ ID NO:2) or SFLLRN—NH2 (SEQ ID NO:1) (0.1–30 μM).
(§2) Results are presented as mean±s.e mean and pEC50 (sensitivity) values were calculated by fitting concentration-response curves to a four parameter logistic function (Kemp and Cocks, 1997) using Graphpad Prism (version 2.0). Statistical comparison of mean pEC50 and maximum response (Rmax) values were compared by two-tailed unpaired Student's t-tests or one way analysis of variance (ANOVA) with Tukey-Kramer's t-tests for multiple comparisons. P<0.05 was accepted as significant. Unless specified, all averaged data are from n>5 experiments.
Mouse bronchus preparations were carefully mounted horizontally on fine (40 μm) stainless steel wires attached to the jaws of a Mulvany-Halpem myograph. After 60 min at 37° C., all rings were stretched to 0.5 g passive force, which had been determined in preliminary experiments to be optimal, and allowed to recover from that stretch for a further 30 min. Maximum contraction (Fmax) in each tissue was then determined with exogenously applied acetylcholine (ACh; 30 μM) followed by washout. A further 30 min equilibration time was allowed before the tissues were actively contracted to between 20% and 60% of their individual Fm.” values with titrated concentrations of carbachol (10–100 nM). […] In some cases, tissues were treated with a range of drugs prior to contraction to approximately […] Fmax. These included the cyclooxygenase inhibitors indomethacin and aspirin, the nitric oxide (NO) synthase inhibitor N′-nitro-L-(L-NOARG), the NO scavenger oxyhaemoglobin (Hb0), and the L-voltage-operated Cat' channel inhibitor nifedipine.
After an initial passive stretch to 0.5 g (Ti) and recovery, each ring was contracted with acetylcholine (Ach; 30 μM). The contraction was taken as the tissue maximum and referred to as Fmax.

[2] = tested on: first generation branches of the mouse main bronchi; settings: mouse bronchioles
Excerpt: as §1
as §2, with “All cumulative responses (relaxations and contractions) were normalised as percentages of the initial level of active force to carbachol. Results” for “Results”

[3] = tested on: rat isolated bronchi
Excerpt: as §1
as §2, with “All cumulative responses (relaxations and contractions) were normalised as percentages of the initial level of active force to carbachol. Results” for “Results”

[4] = tested on: guinea-pig isolated bronchi
Excerpt: as §1
Mouse bronchus preparations were carefully mounted horizontally on fine (40 μm) stainless steel wires attached to the jaws of a Mulvany-Halpem myograph. After 60 min at 37° C., all rings were stretched to 0.5 g passive force, which had been determined in preliminary experiments to be optimal, and allowed to recover from that stretch for a further 30 min. Maximum contraction (Fmax) in each tissue was then determined with exogenously applied acetylcholine (ACh; 30 μM) followed by washout. A further 30 min equilibration time was allowed before the tissues were actively contracted to between 20% and 60% of their individual Fm.” values with titrated concentrations of carbachol (10–100 nM).

[5] = tested on: isolated human bronchioles
Protocol: Small (500 μm) bronchioles were carefully dissected from discarded sections of human left lung which had been excised at surgery from two male lung cancer patients (Royal Melbourne Hospital, Melbourne, Australia).
Dissection of these bronchioles required a fine-dissecting microscope and an assistant to continually flood the preparation with cold oxygenated Krebs solution to remove air bubbles and keep the tissue viable. Bronchioles approximately 2 mm in length were then mounted on […] diameter stainless wires in a Krebs solution-filled myograph chamber, as described for the mouse bronchus preparation above.

[6] = tested on: rat gastric fundus; settings: mucosa intact, contracted with acetylcholine
Excerpt: Longitudinal strips of gastric fundus from male Sprague-Dawley rats were suspended under 1 g passive isometric tension in Krebs solution.

[7] = tested on: human coronary artery rings
[8] = desensitized to both thrombin and trypsin

Substance | relaxation in presence of NO blockers [1] | response of epithelium-intact bronchi [1] | relaxation after removal of the epithelium [1] | response in presence of cyclooxygenase inhibitors [1] | maximum relaxation (Rmax) [1] [%] | sensitivity (pEC50) [1] | response after desensitisation to thrombin [1] | response after desensitisation to trypsin [1] | maximum relaxation (Rmax) [2] [%] | sensitivity (pEC50) [2] | response of epithelium-intact rings [4] | response of human bronchioles [5] | response of rat gastric fundus [6] | also measured
SFLLRN [SFLLRN—NH2] | unaffected | powerful concentration dependent relaxations | abolished | converted to concentration-dependent contractions | 76±11 | 5.6±0.1 −log M | abolished | abolished | 58±10 | 5.5±0.02 | only caused concentration-dependent contractions | relaxed the bronchioles | relaxation | response of rat bronchial rings [3]: only caused a contraction; maximum relaxation relative to isoprenaline plus IBMX ([5]; contracted to approximately 30% Fmax with carbachol): approximately 30%; Rmax after desensitisation [7, 8]: 92.0±5.0%; pEC50 after desensitisation [7, 8]: 6.4±0.2; relaxation after removal of the endothelium ([7]; endothelium-denuded): abolished; maximum (Rmax % contraction reversal) ([7]; endothelium-intact, control): 95.2±1.3%; pEC50 ([7]; endothelium-intact, control): 6.9±0.1 −log M; pEC50, untreated control of desensitisation experiment ([7]; untreated, n=8): 7.0±0.1
SLIGRL-NH2 [SLIGRL—NH2] | unaffected | powerful concentration dependent relaxations | abolished | abolished | 94±3 | 5.6±0.1 −log M | unaffected | abolished | 58±4 | 5.1±0.05 | Concentration dependent relaxations to PAR2-AP were observed in six out of thirteen bronchial rings | appeared to cause some contraction, but this was most likely baseline drift | relaxation | response after desensitisation to trypsin ([1]; listed as PAR2-AP): virtually abolished; Rmax ([3]; rat bronchi): 56±5%; pEC50 ([3]; rat bronchi): 5.5±0.1; response of epithelium-denuded rings ([4]; epithelium-denuded): either caused a small contraction or no response; Rmax ([4]; guinea-pig bronchi): 31±5%; pEC50 ([4]; guinea-pig bronchi): 5.4±0.2; relaxation ([7]; endothelium-intact): no relaxation
